Test results from patent US20050239809A1, “Methods for treating and preventing hypertension and hypertension-related disorders” (priority 2004, published 2005).

Test system: endothelium-denuded aorta from DOCA-salt and sham rats
Assay: Spontaneous tone of endothelium-denuded thoracic aorta in isolated tissue baths (isometric force)
Parameters: species or system rat
Protocol: Endothelial cell-denuded thoracic aorta, removed from pentobarbital (60 mg kg^-1, i.p.) anesthetized rats, were pair-mounted (Sham/DOCA) in isolated tissue baths for measurement of isometric force. (Florian and Watts (1999) Am. J. Physiol., 276: […]-[…]) Tissues were challenged with a maximal concentration of a adrenergic agonist, phenylephrine (PE) (10^-5 mol/L). IC87114 (ICOS Corporation, Bothell, Wash.) concentration response curves were generated by adding increasing concentrations of IC87114 (1×10^-9-3×10^-4 mol/L) with measurements of spontaneous tone taken every 30 minutes. Aortic strips from DOCA-salt rats were also exposed to 20 μmol/L IC87114 or vehicle for 1 hour and measurements of spontaneous tone were recorded. […] Tissues were under passive tension for optimal force production. […] The effect of IC87114 was reversible in all experiments, as spontaneous tone was restored upon washing out of IC87114. In further experiments using an IC87114 concentration equivalent to that used in previous experiments with LY294002 (20 μmol/L) (Example 1), IC87114 (20 μmol/L) or vehicle (0.1% DMSO) was incubated with aortic strips from DOCA-salt rats for 1 hour in isolated tissue baths.

Cc1ccccc1-n1c(Cn2cnc3c(N)ncnc32)nc2cccc(C)c2c1=O [IC87114, 2-(6-aminopurin-9-ylmethyl)-5-methyl-3-o-tolyl-3H-quinazolin-4-one]
effect on spontaneous tone in aorta from DOCA-salt rats, single concentration (20 μmol/L, 1 hour incubation, compared to vehicle (0.1% DMSO), P<0.05): significantly inhibits spontaneous tone development
effect of increasing concentrations on spontaneous tone in aorta from DOCA-salt rats (10^−9 to 3×10^−4 mol/L, absence of agonist, endothelium-denuded aortic strips): reduced spontaneous tone in a concentration-dependent manner
reversibility of effect on spontaneous tone upon washing out (aorta from DOCA-salt rats): reversible
